Assay results reported in patent publication US6518269B1, “Cancer treatment” (University of Arizona Foundation, priority 2000, dated 2003).

Key:
HT29 Colon Cancer = test: MTT growth inhibition assay, HT29 Colon Cancer; assay type: cell-based; settings: Homo sapiens, HT-29, HT29 Colon Cancer cells
Method: (§1) Each of the following compounds was tested for growth inhibition in a MTT assay against B16 Murine Melanoma and HT29 Colon Cancer, reported as IC50(μM).

B16 Murine Melanoma = test: MTT growth inhibition assay, B16 Murine Melanoma; assay type: cell-based; settings: Mus musculus, B16 Murine Melanoma cells
Method: as §1

Row | IC50 (HT29 Colon Cancer) [nM] | IC50 (B16 Murine Melanoma) [nM] | SMILES
1 | 7 | 264 | O=c1cnnc(N/N=C/c2ccccc2O)[nH]1 [Compound I, benzaldehyde, 2-hydroxy-, (4-hydro-5-oxo-1,2,4-triazin-3-yl)hydrazide]
2 | 19 | 1100 | Cc1nnc(N/N=C/c2ccccc2O)[nH]c1=O [Compound II, benzaldehyde, 2-hydroxy-, (4-hydro-5-oxo-6-methyl-1,2,4-triazin-3-yl)hydrazide]
